This is an account of results in article PMC6316200, “Ceratinadins E and F, New Bromotyrosine Alkaloids from an Okinawan Marine Sponge Pseudoceratina sp” (Marine Drugs, 2018).

In brackets after ≈: the same amount, converted by molar mass. Where two headings read alike, the source gives them in different places.

Series [1] can be described thus: Cytotoxicity against MRC-5 cells. Type of series: cell-based, human.
The test system of series [2] is Plasmodium falciparum K1 strain. The experiment in a line: Antimalarial activity in vitro against drug-resistant P. falciparum K1 strain. The format is cell-based. The settings on record: for IC50: Plasmodium falciparum; for Selectivity Index MRC-5/K1: ratio of IC50 MRC-5 to IC50 K1. The text has this: (§1) The antimalarial activities of psammaplysin F (3), ceratinadin E (1), and ceratinadin F (2) against a drug-resistant and a drug-sensitive strains of Plasmodium falciparum (K1 and FCR3 strains, respectively) were examined, see Table 2 [16].

Series [3] relates to Plasmodium falciparum FCR3 strain. The experiment in a line: Antimalarial activity in vitro against drug-sensitive P. falciparum FCR3 strain. Type of series: cell-based. The settings on record: for IC50: Plasmodium falciparum; for Selectivity Index MRC-5/FCR3: ratio of IC50 MRC-5 to IC50 FCR3.
Excerpt: as §1

In series [4] the test system is MRC-5 (normal human embryonic lung fibroblast). The experiment in a line: Cytotoxicity against MRC-5 cells. The format is cell-based.
[5] abbreviates: human, MRC-5 cells (normal human embryonic lung fibroblasts).
Where [6] appears, read: drug-resistant P. falciparum strain K1, in vitro, read-out: Antimalarial Activity K1, IC50.
Where [7] appears, read: drug-sensitive P. falciparum strain FCR3, in vitro, read-out: Antimalarial Activity FCR3, IC50.

With `C[C@@H]1CC[C@H]2[C@@H](C)C(=O)O[C@@H]3O[C@@]4(C)CC[C@@H]1[C@]32OO4` [Artemisinin, reference compound], the IC50 in series [1] (setting [5]) is more than 14.1 µg/mL; in series [2] (setting [6]), 0.01 µg/mL (≈ 0.0354 µM); in series [3] (setting [7]), 0.0088 µg/mL (≈ 0.0312 µM). Besides, the “Selectivity Index MRC-5/K1” value in series [2] is more than 1412. Also, the “Selectivity Index MRC-5/FCR3” value in series [3] is on record as more than 1604.5.
Consider `CNCCc1cc(Br)c(OCCCNC(=O)N(C)CCc2cc(Br)c(OCCCNC(=O)C3=NO[C@]4(CC(Br)=C(OC)C(Br)=CO4)[C@@H]3O)c(Br)c2)c(Br)c1` [Ceratinadin E (1), ceratinadin E], for which the IC50 was 16 µg/mL (≈ 14 µM) in series [1] (setting [5]), 1.03 µg/mL (≈ 0.904 µM) in series [2] (setting [6]) and 0.77 µg/mL (≈ 0.676 µM) in series [3] (setting [7]). The “Selectivity Index MRC-5/K1” value in series [2] was 15.5. Also, the “Selectivity Index MRC-5/FCR3” value in series [3] is 20.8.
Turning to `CNCCc1cc(Br)c(OCCCNC(=O)N(C)CCc2cc(Br)c(OCCCNC(=O)N(C)CCc3cc(Br)c(OCCCNC(=O)C4=NO[C@]5(CC(Br)=C(OC)C(Br)=CO5)[C@@H]4O)c(Br)c3)c(Br)c2)c(Br)c1` [Ceratinadin F (2), ceratinadin F], the concentration for half-maximal inhibition (IC50) in series [1] (setting [5]) was more than 50 µg/mL; in series [2] (setting [6]), more than 12.5 µg/mL. Further, the “antimalarial activity (in words)” value in series [2] (P. falciparum in vitro, strain not named, only K1 examined for this compound) is on record as “did not show significant antimalarial activity”. Besides, the “Selectivity Index MRC-5/K1” value in series [2] is on record as more than 4.
In the case of `CCN(CC)CCCC(C)Nc1ccnc2cc(Cl)ccc12` (centres unmarked) [Chloroquine, reference compound], the IC50 is more than 25.8 µg/mL in series [1] (normal human embryonic lung fibroblast); 0.34 µg/mL (≈ 1.06 µM) in series [2] (K1, read-out: Antimalarial Activity K1, IC50); 0.035 µg/mL (≈ 0.109 µM) in series [3] (FCR3, read-out: Antimalarial Activity FCR3, IC50).
As to psammaplysin F [Psammaplysin F (3)], in series [4], the “Cytotoxicity MRC-5, IC50” value came to 12.65 µg/mL. For the same molecule, the “Antimalarial Activity K1, IC50” value in series [2] (drug-resistant P. falciparum strain K1, in vitro) turned out to be 3.77 µg/mL. In addition, the “Antimalarial Activity FCR3, IC50” value in series [3] (drug-sensitive P. falciparum strain FCR3, in vitro) is 2.45 µg/mL.

The term IC50 denotes the concentration that gives 50% inhibition.
